In patent US7235584B2, “Non-psychotropic cannabinoids” (Pharmos Corporation, priority 2000, dated 2007):

Key:
transient MCAo in rats = assay: Transient MCAo evaluated by the staircase test; format: in vivo, Sprague Dawley rats; conditions: for staircase contralateral performance, pellet consumption (in words): administered 2 hours after start of MCAo
Description: The test challenges fine motor, sensory and stereognostic function of the cortex in enabling the forepaw (hand) to identify, grasp and accurately manipulate small objects such as food pellets. Loss of the ability to identify, grasp and manipulate small objects reflects a lesion of the fronto-parietal cortex and is a common and crippling deficit after stroke in humans.
The materials for this procedure are identical to those from Physiological Example 5, except for the different concentrations of PRS-211,095. The procedural differences are as follows: • Male Sprague Dawley rats, 230–270 gr (Harlan, Israel) were used. The following compounds and their respective concentrations were tested:
Dexanabinol and analogs PRS-211,095 and PRS-211,220 in PEG ethanol cosolvent 50 mg/ml. Dexanabinol, the analogs and their vehicle were diluted in Intralipid® 20% (Pharmacia) prior to drug administration.
The procedure is essentially as described in Montoya et al. (Montoya, Campbell-Hope, Pemberton and Dunnet, J. Neurosci. Meth. 36:219–228,1991) Animals were kept under mild food deprivation for 3–5 days, receiving 15-gr. food once a day (between 16:00 and 17:00) and free access to water.
In brief, the staircase box contains two rows of seven stairs in each. Two 45 mg food pellets were placed on each step. Animals were placed in the box for 15 minutes sessions. At the end of the session the number of eaten (grasped) and displaced pellets was counted and recorded. Animals were tested twice a day, 4 hours apart. The first session was performed between 8–9 AM and second between 12–13 PM. The animals were trained until they grasped (ate) at least 8 pellets from each set of stairs for two consecutive sessions. Up to one week after the end of the successful training session the animals underwent transient MCAo.
Transient MCAO was performed in essentially the same manner as described in Physiological example 5 with the following modification at step i:
Two minutes prior to thread removal rats were re-anesthetized and administered IV with Dexanabinol 5 mg/kg, analogs
PRS-211,220 or PRS-211,095 at 0.5, 2.5, 5 or 10 mg/kg or vehicle 5 ml/kg. One additional group was sham-treated.
Animals were allowed to recover from the surgery for five days. The mild food deprivation was re-employed during the days following the ischemic insult. They were tested in the staircase box using the above method for 9–12 days. Animals were weighed twice a week during this period.
At the end of the evaluation period, animals were euthanized with pentobarbitone 100 mg/kg IP. The animals were perfused through the heart with heparinized 4% formaldehyde solution in PBS (pH 7.4). Brains were then removed, and kept in the same solution for at least 24h. Then the brains—from the rostral side of the cortex to the cerebellum—were sunk in 30% sucrose in PBS, cryosectioned (20 μm), dried and stained with thionin for histological evaluation of the brain infarct volume. Eight sections at the levels of: 3.3;+2.8;+1.8; +0.8; −0.4;−1.4; −2.2; and −3.4 from Bregma were measured (Swanson, Rat Brain Atlas, 1992). Sections were captured by a CCD camera (V-tech MP-470) and image analyzed (Scion image 1.62A). Infarct size was determined from the series of the 8 sections by either calculation of the infarct volume (mm3) by summing the series of mean lesion areas of two adjacent sections multiplied by the distance between them or calculation of the mean infarct size as percentage of the contralateral hemisphere size; calculation of the mean of the surviving ipsilateral side as percentage of the contralateral hemisphere size; calculation of the mean ipsilateral side ventricle as percentage of the contralateral hemisphere ventricle.
• a. The infarct size was compared using ANOVA (analysis of variance) followed by Duncan's post hoc test. • b. The staircase task performance was evaluated after collecting the data and compressing it into four blocks of six trials: […]

AMPA binding = AMPA binding to rat forebrain membranes
[1] = tested on: rat model of closed head injury; assay: Closed head injury (head trauma) in rats: cerebral edema and Neurological Severity Score; format: in vivo
Description: Severe head injury is associated with high mortality and severe neurological impairment. Animals subjected to head trauma in a controlled fashion serve as models in which to test drugs of therapeutic potential. Test compounds can be evaluated both for improved clinical outcome and for reduction of edema induced by closed head injury. The ability of compounds to reduce the severity of neurological symptoms and to reduce brain edema is considered a measure of their potency in reducing brain damage.
The cerebroprotective effect of PRS-211 compounds was assessed in a model of head trauma (HT) in rats. […] The clinical status of the rats was evaluated 1, 24 and 48 hours after injury along with measuring the extent of cerebral edema. The neurological deficit, assessed by a set of criteria termed the Neurological Severity Score (NSS), is maximal at 1 hour after the initiation of head trauma. […]
The model was described in detail by Shapira et al., Crit. […] During the recovery period, the clinical status was evaluated by a set of criteria (NSS).
Trauma induced a significant decrease in specific gravity (SG) of brain tissue and increase in water content following head injury. […] Tissue pieces (20 mg each) were placed on top of the column and the SG calculated from the equilibrium position in the column, using a standard curve. […]

[2] = 5 mg/kg, administered 3 hours following transient MCAo

## CCCCCCC(C)(C)c1cc(O)c2c(c1)OC(C)(C)C1CC=C(CSc3ncc[nH]3)CC21 (single isomer, unassigned; (+)) [211,092-000]
Transient MCAo in rats; [2]
  increase in pellet consumption, session 3: 58%
Transient MCAo in rats; 5 mg/kg, administered 6 hours following transient MCAo
  increase in pellet consumption, session 3: 30%

## CCCCCCC(C)(C)c1cc(O)c2c(c1)OC(C)(C)[C@H]1CC=C(CO)CC21 (stereo partly drawn) [211,007-000, 1,1 dimethyl heptyl-(3S,4S)-7-hydroxy-Δ^6-tetrahydrocannabinol]
Transient MCAo in rats; 0.5 mg/kg
  staircase contralateral performance, pellet consumption (in words): No improvement
Transient MCAo in rats; 5 mg/kg
  displaced pellets parameter: improved performance
AMPA binding
  inhibition of AMPA binding: unable to inhibit

## CCCCCCC(C)(C)c1cc(O)c2c(c1)OC(C)(C)[C@H]1CC=C(Cn3cccn3)C[C@H]21 [211,220-000, (+)-(3S,4S)-6,6-Dimethyl-(1,1-dimethylheptyl)-1-hydroxy-9-(pyrazolomethyl)-6a,7,10,10a-tetrahydro-6H-dibenzo[b,d]pyran]
Transient MCAo in rats; 0.5 mg/kg
  displaced pellets parameter: improved performance
Transient MCAo in rats; 0.5 mg/kg, administered 3 hours following transient MCAo
  increase in pellet consumption, session 3: 27%
Transient MCAo in rats; 0.5 mg/kg, administered 6 hours following transient MCAo
  increase in pellet consumption, session 3: 40%

## CCCCCCC(C)(C)c1cc(O)c2c(c1)OC(C)(C)C1CC=C(Cn3ccnc3)CC21.Cl (single isomer, unassigned; (+)) [211,095-000, (+)-(3S ,4S )-6,6-Dimethyl-(1,1-dimethylheptyl)-1-hydroxy-9-(imidazolomethyl)-6a,7,10,10a-tetrahydro-6H-dibenzo[b,d]pyran]
[1]; given 30 min before, immediately after, or 1 and 2 hours after HT
  edema formation and BBB disruption: significantly reduces edema formation and BBB disruption
[1]; one dose of 5 mg/kg given 1 hour after the impact
  edema and clinical outcome 24 hours after HT: effectively reduced edema and improved the clinical outcome
Transient MCAo in rats; 0.5 mg/kg
  staircase contralateral performance, pellet consumption (in words): moderately improved pellet consumption
Transient MCAo in rats; 2.5 mg/kg
  protection of infarct volume (histopathology): No protection
  staircase contralateral performance, pellet consumption (in words): moderately improved pellet consumption
Transient MCAo in rats; 5 mg/kg
  displaced pellets parameter: improved performance
  staircase contralateral performance, pellet consumption (in words): robust improvement
Transient MCAo in rats; [2]
  increase in pellet consumption, session 3: 17%
Transient MCAo in rats; 10 mg/kg
  staircase contralateral performance, pellet consumption (in words): robust improvement
